According to patent publication US7803930B2, “Antisense modulation of apolipoprotein B-expression” (Isis Pharmaceuticals, Inc., priority 2002, dated 2010):
In the oligonucleotide strings, read from the 5' end, every base follows the letter of its sugar. An asterisk marks phosphorothioate; unmarked linkages are phosphodiester. Other units and linkages are bracketed, terminal groups are in braces. A string of capitals states the bases alone. e = 2'-O-(2-methoxyethyl) (MOE); [5mC] = 5-methylcytosine; d = 2'-deoxy (DNA)

Tested on: human apolipoprotein B mRNA
Assay: Inhibition of human apolipoprotein B mRNA levels in HepG2 cells, quantitative real-time PCR
Type: cell-based
Conditions: for % INHIB (inhibition of human apolipoprotein B mRNA levels): HepG2 cells treated with 150 nM of compound, quantitative real-time PCR; for % INHIB (inhibition of human apolipoprotein B mRNA levels) / % INHIB / % INHIB 50 nm / % INHIB 150 nm: averages from two experiments; for % INHIB / % Change in apolipoprotein B mRNA expression / % INHIB 50 nm / % INHIB 150 nm: HepG2 cells; for % Change in apolipoprotein B mRNA expression: 24 hour (Table 41); for % INHIB 50 nm / % INHIB 150 nm: Table 11 gene walk
How it was run: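 Apolipoprotein B transcript was quantified by one-step TaqMan RT-PCR, normalized to GAPDH or RiboGreen RNA, and expressed as percent inhibition against an untreated-sample standard curve. HepG2 cells were harvested 16-24 h after oligonucleotide exposure, which was delivered with 3.75 μg/mL Lipofectin over 4-7 h at 80% confluency.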

[1] = human apolipoprotein B mRNA, oligonucleotides targeting genomic sequence SEQ ID NO 334

For “271032 (e[5mC]*eT*eG*eT*eG*dG*d[5mC]*dT*dA*dA*d[5mC]*dT*dT*d[5mC]*dA*eA*eT*e[5mC]*e[5mC]*e[5mC]; antisense) [compound 271032]”, the “% INHIB (inhibition of human apolipoprotein B mRNA levels)” value was 22%.
With “271020 (antisense eT*eT*eG*eA*eA*dT*d[5mC]*d[5mC]*dA*dG*dG*dA*dT*dG*d[5mC]*eA*eG*eT*eA*e[5mC]) [compound 271020]” the “% INHIB (inhibition of human apolipoprotein B mRNA levels)” value was 35%.
With “301180 (antisense eG*eA*eA*eT*eA*d[5mC]*dT*d[5mC]*dA*d[5mC]*d[5mC]*dT*dT*d[5mC]*dT*eG*e[5mC]*eT*eT*eG) [compound 301180]” the “% INHIB” value [1] was 6%.
For “331022 (antisense GCCTCAGTCTGCTTCGCAC; sugars from the 5' end e5 d10 e4, all phosphorothioate, methylation of C not given here) [compound 331022]”, the “% Change in apolipoprotein B mRNA expression” value (“% Change” for short) (10 nM) was −33%, the “% Change” value (50 nM) was −49% and the “% Change” value (150 nM) was −87%.
“308597 (antisense eT*e[5mC]*eA*eG*eT*d[5mC]*dT*dG*d[5mC]*dT*dT*d[5mC]*dG*d[5mC]*dA*e[5mC]*e[5mC]*eT*eT*e[5mC]) [compound 308597]” was tested, and the “% INHIB 50 nm” value (50 nM) was 66% and the “% INHIB 150 nm” value (150 nM) was 91%.
“271047 (e[5mC]*e[5mC]*eT*e[5mC]*e[5mC]*d[5mC]*dT*d[5mC]*dA*dT*dG*dA*dA*d[5mC]*dA*eT*eA*eG*eT*eG; antisense) [compound 271047]” was tested, and the “% INHIB” value (Table 12, 150 nM) was 32%.
In the case of “301109 (antisense eG*eT*eT*eT*e[5mC]*dA*dT*dG*dG*dA*dA*d[5mC]*dT*d[5mC]*dA*eG*e[5mC]*eG*e[5mC]*eA) [compound 301109]”, the “% INHIB” value [1] is reported as 44%.
“301085 (antisense eT*eG*eG*eG*eA*d[5mC]*dT*dT*dA*d[5mC]*d[5mC]*dA*dT*dG*d[5mC]*e[5mC]*eT*eT*eT*eG) [compound 301085]” was tested, and the “% INHIB” value [1] was 11%.
With “301154 (e[5mC]*eA*eG*e[5mC]*e[5mC]*dT*dG*d[5mC]*dA*dT*d[5mC]*dT*dA*dT*dA*eA*eG*eT*e[5mC]*eA; antisense) [compound 301154]” the “% INHIB” value [1] was 31%.
For “308605 (eG*eA*eA*eT*eG*dT*d[5mC]*dA*dT*dG*dG*dT*dA*dG*d[5mC]*e[5mC]*eT*e[5mC]*eA*eG; antisense) [compound 308605]”, the “% INHIB 50 nm” value (50 nM) was 50% and the “% INHIB 150 nm” value (150 nM) was 81%.
For “301220 (antisense eA*eG*eA*eG*eG*dT*dT*dT*dT*dG*d[5mC]*dT*dG*dT*dG*e[5mC]*e[5mC]*eA*eG*eA) [compound 301220]”, the “% INHIB” value (Table 15, 150 nM) was 51%.
With “301203 (antisense eG*eT*eT*e[5mC]*e[5mC]*d[5mC]*dA*dA*dA*dA*d[5mC]*dT*dG*dT*dA*eT*eA*eG*eG*eA) [compound 301203]” the “% INHIB” value [1] was 36%.
With “301116 (antisense eG*eA*eT*eG*eG*dA*dT*dG*dG*dT*dG*dA*dG*dA*dA*eA*eT*eT*eA*e[5mC]) [compound 301116]” the “% INHIB” value [1] was 33%.
For “301055 (eT*eG*eG*e[5mC]*eT*d[5mC]*dA*dT*dG*dT*d[5mC]*dT*dA*d[5mC]*d[5mC]*eA*eT*eA*eT*eT; antisense) [compound 301055]”, the “% INHIB” value [1] was 49%.
With “271015 (antisense eT*eG*eT*eG*eT*dT*d[5mC]*d[5mC]*d[5mC]*dT*dG*dA*dA*dG*d[5mC]*eG*eG*e[5mC]*e[5mC]*eA) [compound 271015]” the “% INHIB (inhibition of human apolipoprotein B mRNA levels)” value was 43%.
In the case of “281590 (e[5mC]*eT*eG*e[5mC]*eT*dT*d[5mC]*d[5mC]*d[5mC]*dT*dT*d[5mC]*dT*dG*dG*eA*eA*eT*eG*eG; antisense) [compound 281590]”, the “% INHIB (inhibition of human apolipoprotein B mRNA levels)” value is reported as 84%.
“281643 (eG*eA*e[5mC]*eA*eT*dT*dT*dG*d[5mC]*d[5mC]*dA*dT*dG*dG*dA*eG*eA*eG*eA*eG; antisense) [compound 281643]” was tested, and the “% INHIB (inhibition of human apolipoprotein B mRNA levels)” value was 61%.
With “301019 (eG*eG*e[5mC]*eT*e[5mC]*d[5mC]*dT*d[5mC]*dA*dG*d[5mC]*dG*dG*d[5mC]*dA*eG*e[5mC]*eA*eA*e[5mC]; antisense) [compound 301019]” the “% INHIB (inhibition of human apolipoprotein B mRNA levels)” value was 70%.
